# Experimental data from the supplement of paper PMC10307832.
# Compound: CC(C)C[C@@H](C(=O)N[C@H](C(=O)OC1CCCC1)c1ccccc1)[C@H](O)C(=O)NO [Tosedostat] + Cc1nc(NC(=O)N2CCC[C@H]2C(N)=O)sc1-c1ccnc(C(C)(C)C(F)(F)F)c1 [Alpelisib] (partner 2 µM)
# Test: relative viability (nuclei count vs DMSO), 5 days (fraction); higher = more cells survive
# Conditions: first compound 2 µM
# Method in brief: (§1)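 Each reported value is a median over duplicate plates. It expresses relative viability: treated-well nuclei count divided by vehicle-well nuclei count. Lung cancer cell lines in 1536-well plates were dosed by pin tool a day after seeding, alone with one drug or with a fixed anchor-drug dose plus five library-drug doses (not always all listed) in √10 steps, and nuclei were counted after 5 days.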
row,Cell Line,relative viability
1,LK-2,1.11
2,NCI-H2347,1.03
3,SK-MES-1,0.689
4,H3255,0.663
5,COR-L23,0.655
6,COR-L 105,0.753
7,IA-LM,0.617
8,LU99A,0.477
9,NCI-H2170,0.862
10,NCI-H460,0.796
11,HOP-62,0.744
12,HCC-44,0.544
13,A549,0.526
14,LXF-289,1.1
15,BEN,1.26
16,HARA,0.74
17,HCC-78,0.454
18,NCI-H647,1.14
19,LCLC-97TM1,0.211
20,NCI-H1299,0.906
21,NCI-H1563,1.1
22,ABC-1,0.771

# Compound: CC1=NN=C(O1)C2=NN=C(C=C2)N3CCC(CC3)OC4=C(C=CC(=C4)F)Cl + C[C@]1(O)C[C@@H](c2nc(-c3ccc4ccc(-c5ccccc5)nc4c3)c3c(N)nccn32)C1 [Linsitinib] (partner 1 µM)
# Test: as above
# Conditions: first compound 0.253 µM
# Method in brief: as §1
row,Cell Line,relative viability
1,SK-LU-1,1.03
2,NCI-H1703,0.714
3,EBC-1,0.549
4,NCI-H1792,0.324
5,NCI-H2087,0.646
6,SW 1573,0.805
7,LCLC-103H,0.807
8,NCI-H727,0.189
9,NCI-H2405,0.859
10,EMC-BAC-2,0.742
11,NCI-H23,0.482
12,Calu-6,0.635
13,HCC-366,0.225
14,NCI-H1755,0.661
15,NCI-H838,0.919
16,LK-2,0.603
17,NCI-H2347,0.636
18,SK-MES-1,0.848

row,Cell Line,relative viability
1,H3255,0.697
2,COR-L23,0.669
3,COR-L 105,0.764
4,IA-LM,0.0892
5,LU99A,0.459
6,NCI-H460,0.331
7,HOP-62,0.677
8,HCC-44,0.423
9,A549,0.543
10,LXF-289,0.724
11,BEN,0.784
12,HARA,0.705
13,HCC-78,0.455
14,NCI-H647,0.759
15,LCLC-97TM1,0.159
16,NCI-H1299,0.896
17,NCI-H1563,1.18
18,ABC-1,0.627

# Same assay, conditions: first compound 0.8 µM
row,Cell Line,relative viability
1,SK-LU-1,0.852
2,NCI-H1703,0.686
3,EBC-1,0.558
4,NCI-H1792,0.409
5,NCI-H2087,0.659
6,NCI-H596,0.953
7,SW 1573,0.727
8,LCLC-103H,0.867
9,NCI-H727,0.251
10,NCI-H2405,0.784
11,EMC-BAC-2,0.755
12,Calu-6,0.612
13,HCC-366,0.291
14,NCI-H1755,0.754
15,NCI-H838,0.872
16,LK-2,0.592
17,NCI-H2347,0.69

row,Cell Line,relative viability
1,SK-MES-1,0.8
2,H3255,0.719
3,COR-L23,0.726
4,COR-L 105,0.935
5,IA-LM,0.0763
6,LU99A,0.5
7,NCI-H460,0.3
8,HCC-44,0.484
9,A549,0.565
10,LXF-289,0.712
11,BEN,0.879
12,HARA,0.394
13,HCC-78,0.417
14,NCI-H647,0.805
15,NCI-H1299,0.802
16,NCI-H1563,1.1
17,ABC-1,0.465

# Same assay, conditions: first compound 2.53 µM
row,Cell Line,relative viability
1,SK-LU-1,1.02
2,NCI-H1703,0.803
3,EBC-1,0.623
4,NCI-H1792,0.36
5,NCI-H2087,0.621
6,NCI-H596,1.01
7,NCI-H1355,0.806
8,SW 1573,0.74
9,LCLC-103H,0.761
10,NCI-H727,0.327
11,NCI-H2405,0.851
12,EMC-BAC-2,0.77
13,NCI-H23,0.543
14,Calu-6,0.691
15,HCC-366,0.386
16,NCI-H1755,0.728
17,NCI-H838,0.93
18,LK-2,0.627
19,NCI-H2347,0.766

row,Cell Line,relative viability
1,SK-MES-1,0.828
2,H3255,0.718
3,COR-L23,0.678
4,COR-L 105,1.1
5,IA-LM,0.1
6,LU99A,0.498
7,NCI-H460,0.398
8,HOP-62,0.771
9,HCC-44,0.484
10,A549,0.427
11,LXF-289,0.688
12,BEN,0.919
13,HARA,0.451
14,HCC-78,0.459
15,NCI-H647,0.616
16,LCLC-97TM1,0.174
17,NCI-H1299,0.807
18,NCI-H1563,1.35
19,ABC-1,0.575

# Same assay, conditions: first compound 8 µM
row,Cell Line,relative viability
1,SK-LU-1,0.589
2,NCI-H1703,0.737
3,EBC-1,0.57
4,NCI-H1792,0.401
5,NCI-H2087,0.53
6,NCI-H596,0.933
7,NCI-H1355,0.66
8,SW 1573,0.673
9,LCLC-103H,0.711
10,NCI-H727,0.251
11,NCI-H2405,0.731
12,EMC-BAC-2,0.637
13,NCI-H23,0.521
14,Calu-6,0.656
15,HCC-366,0.247
16,NCI-H1755,0.683
17,NCI-H838,0.856
18,LK-2,0.49
19,NCI-H2347,0.658

row,Cell Line,relative viability
1,SK-MES-1,0.815
2,H3255,0.716
3,COR-L23,0.579
4,COR-L 105,1.21
5,IA-LM,0.0794
6,LU99A,0.466
7,NCI-H460,0.342
8,HOP-62,0.443
9,HCC-44,0.384
10,A549,0.351
11,LXF-289,0.603
12,BEN,0.75
13,HARA,0.308
14,HCC-78,0.403
15,NCI-H647,0.582
16,LCLC-97TM1,0.191
17,NCI-H1299,0.856
18,NCI-H1563,1.21
19,ABC-1,0.451

# Compound: CC1=NN=C(O1)C2=NN=C(C=C2)N3CCC(CC3)OC4=C(C=CC(=C4)F)Cl + CC(=O)Nc1cccc(-n2c(=O)n(C3CC3)c(=O)c3c(Nc4ccc(I)cc4F)n(C)c(=O)c(C)c32)c1 [Trametinib] (partner 0.02 µM)
# Test: as above
# Conditions: first compound 0.253 µM
# Method in brief: as §1
row,Cell Line,relative viability
1,NCI-H522,0.785
2,SK-LU-1,0.47
3,NCI-H1792,0.359
4,NCI-H2087,0.167
5,NCI-H596,0.687
6,NCI-H1355,0.317
7,SW 1573,0.512
8,LCLC-103H,0.533
9,NCI-H727,0.467
10,NCI-H2405,0.526
11,EMC-BAC-2,0.873
12,NCI-H23,0.34
13,HCC-366,0.16
14,NCI-H1755,0.619
15,NCI-H838,0.406
16,LK-2,0.728
17,NCI-H2347,0.234
18,NCI-H2342,0.581

row,Cell Line,relative viability
1,SK-MES-1,0.486
2,H3255,0.407
3,COR-L23,0.498
4,COR-L 105,0.488
5,LU99A,0.525
6,ChaGo-K-1,0.649
7,NCI-H2170,0.377
8,NCI-H460,0.0953
9,HOP-62,0.361
10,HCC-44,0.608
11,LXF-289,0.603
12,BEN,1.1
13,HARA,0.438
14,NCI-H1648,0.442
15,HCC-78,0.338
16,NCI-H647,0.287
17,LCLC-97TM1,0.175
18,NCI-H1650,0.352

# Same assay, conditions: first compound 0.8 µM
row,Cell Line,relative viability
1,NCI-H522,0.852
2,SK-LU-1,0.417
3,NCI-H1792,0.398
4,NCI-H2087,0.196
5,NCI-H596,0.811
6,NCI-H1355,0.379
7,SW 1573,0.43
8,LCLC-103H,0.522
9,NCI-H727,0.402
10,NCI-H2405,0.451
11,EMC-BAC-2,0.736
12,NCI-H23,0.37
13,HCC-366,0.23
14,NCI-H1755,0.659
15,NCI-H838,0.429
16,LK-2,0.732
17,NCI-H2347,0.288
18,NCI-H2342,0.554

row,Cell Line,relative viability
1,SK-MES-1,0.573
2,H3255,0.491
3,COR-L23,0.396
4,COR-L 105,0.424
5,LU99A,0.59
6,ChaGo-K-1,0.555
7,NCI-H2170,0.392
8,NCI-H460,0.176
9,HOP-62,0.361
10,HCC-44,0.994
11,SW 900,0.749
12,LXF-289,0.582
13,BEN,1.12
14,HARA,0.369
15,NCI-H1648,0.43
16,HCC-78,0.396
17,NCI-H647,0.5
18,NCI-H1650,0.482

# Same assay, conditions: first compound 2.53 µM
row,Cell Line,relative viability
1,NCI-H522,0.783
2,SK-LU-1,0.531
3,NCI-H1792,0.647
4,NCI-H2087,0.244
5,NCI-H596,0.714
6,NCI-H1355,0.374
7,SW 1573,0.445
8,LCLC-103H,0.489
9,NCI-H727,0.385
10,NCI-H2405,0.432
11,EMC-BAC-2,0.791
12,NCI-H23,0.372
13,HCC-366,0.268
14,NCI-H1755,0.645
15,NCI-H838,0.478
16,LK-2,0.867
17,NCI-H2347,0.256
18,NCI-H2342,0.55
19,SK-MES-1,0.507

row,Cell Line,relative viability
1,H3255,0.573
2,COR-L23,0.529
3,COR-L 105,0.414
4,LU99A,0.577
5,ChaGo-K-1,0.613
6,NCI-H2170,0.368
7,NCI-H460,0.175
8,HOP-62,0.361
9,HCC-44,0.945
10,SW 900,0.862
11,LXF-289,0.637
12,BEN,1.03
13,HARA,0.448
14,NCI-H1648,0.405
15,HCC-78,0.433
16,NCI-H647,0.45
17,LCLC-97TM1,0.191
18,NCI-H1650,0.481

# Same assay, conditions: first compound 8 µM
row,Cell Line,relative viability
1,NCI-H522,0.924
2,SK-LU-1,0.407
3,NCI-H1792,0.487
4,NCI-H2087,0.175
5,NCI-H596,0.692
6,NCI-H1355,0.371
7,SW 1573,0.306
8,LCLC-103H,0.431
9,NCI-H727,0.341
10,NCI-H2405,0.411
11,EMC-BAC-2,0.65
12,NCI-H23,0.381
13,HCC-366,0.193
14,NCI-H1755,0.643
15,NCI-H838,0.428
16,LK-2,0.828
17,NCI-H2347,0.246
18,NCI-H2342,0.486
19,SK-MES-1,0.501

row,Cell Line,relative viability
1,H3255,0.483
2,COR-L23,0.444
3,COR-L 105,0.429
4,LU99A,0.509
5,ChaGo-K-1,0.57
6,NCI-H2170,0.356
7,NCI-H460,0.15
8,HOP-62,0.397
9,HCC-44,0.856
10,SW 900,0.621
11,LXF-289,0.58
12,BEN,1.17
13,HARA,0.322
14,NCI-H1648,0.479
15,HCC-78,0.365
16,NCI-H647,0.297
17,LCLC-97TM1,0.148
18,NCI-H1650,0.49
